Reference: patent publication US8541410B2, “Sulfur substituted sulfonylaminocarboxylic acid N-arylamides, their preparation, their use and pharmaceutical preparations comprising them” (Sanofi-aventis Deutschland GmbH, priority 1998, dated 2013)

Target: T1, soluble guanylate cyclase (sGC) (Bos taurus, UniProt P16068)
T1 construct: The sGC which was employed had been isolated from bovine lung; from tissue; host or cells: bovine lung
T1 sequence (P16068 1-619): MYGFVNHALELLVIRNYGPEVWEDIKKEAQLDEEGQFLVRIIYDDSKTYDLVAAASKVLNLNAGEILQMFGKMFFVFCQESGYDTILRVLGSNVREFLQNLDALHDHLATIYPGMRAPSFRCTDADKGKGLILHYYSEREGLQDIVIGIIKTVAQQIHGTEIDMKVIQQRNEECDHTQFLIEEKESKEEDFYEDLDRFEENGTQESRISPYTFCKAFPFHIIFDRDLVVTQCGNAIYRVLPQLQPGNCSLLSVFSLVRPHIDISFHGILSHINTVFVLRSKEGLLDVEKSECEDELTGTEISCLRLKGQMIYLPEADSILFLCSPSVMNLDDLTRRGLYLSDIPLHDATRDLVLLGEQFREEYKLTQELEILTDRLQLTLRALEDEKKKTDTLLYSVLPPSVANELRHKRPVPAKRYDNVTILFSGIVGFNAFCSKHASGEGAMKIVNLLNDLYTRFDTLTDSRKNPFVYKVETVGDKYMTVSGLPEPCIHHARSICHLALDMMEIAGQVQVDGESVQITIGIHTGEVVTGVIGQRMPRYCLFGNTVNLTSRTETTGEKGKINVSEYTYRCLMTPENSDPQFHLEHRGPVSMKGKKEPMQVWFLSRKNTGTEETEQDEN
T1 sequence (P19687 1-691 partner): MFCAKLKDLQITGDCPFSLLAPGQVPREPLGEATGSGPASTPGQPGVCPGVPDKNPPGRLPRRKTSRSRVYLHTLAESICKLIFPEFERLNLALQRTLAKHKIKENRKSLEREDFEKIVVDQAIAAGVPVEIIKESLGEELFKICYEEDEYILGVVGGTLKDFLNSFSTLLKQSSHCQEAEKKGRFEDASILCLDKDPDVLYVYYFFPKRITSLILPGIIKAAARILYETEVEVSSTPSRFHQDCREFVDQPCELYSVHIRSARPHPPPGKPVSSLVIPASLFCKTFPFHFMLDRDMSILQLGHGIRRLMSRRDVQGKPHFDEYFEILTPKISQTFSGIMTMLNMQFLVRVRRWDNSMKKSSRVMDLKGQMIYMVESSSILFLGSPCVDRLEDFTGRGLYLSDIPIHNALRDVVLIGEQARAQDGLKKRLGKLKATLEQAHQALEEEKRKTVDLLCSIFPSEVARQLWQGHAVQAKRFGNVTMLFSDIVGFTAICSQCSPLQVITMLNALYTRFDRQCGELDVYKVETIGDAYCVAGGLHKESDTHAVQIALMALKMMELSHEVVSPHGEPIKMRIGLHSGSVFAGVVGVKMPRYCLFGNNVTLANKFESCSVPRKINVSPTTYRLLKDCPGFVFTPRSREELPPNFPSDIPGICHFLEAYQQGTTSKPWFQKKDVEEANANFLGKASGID
Assay: Activation of the soluble guanylate cyclase (cGMP enzyme immunoassay)
Assay type: biochemical, bovine
Settings: n-fold stimulation of basal enzyme activity
Procedure: The activation of the soluble guanylate cyclase (sGC) which catalyzes the conversion of guanosine triphosphate (GTP) into cyclic guanosine monophosphate (cGMP) and pyrophosphate, by the compounds according to the invention was quantified with the aid of an enzyme immunoassay (EIA) from Amersham. For this purpose the substances to be tested were initially incubated with sGC in microtiter plates, and the amount of the cGMP formed was then determined.
The sGC which was employed had been isolated from bovine lung (see Methods in Enzymology, Volume 195, p. 377). The test solutions (100 μl per well) contained 50 mM triethanolamine (TEA) buffer (pH 7.5), 3 mM MgCl2, 3 mM reduced glutathione (GSH), 0.1 mM GTP, 1 mM 3-isobutyl-1-methylxanthine (IBMX), suitably diluted enzyme solution and the substance to be tested or, in the control experiments, the solvent. The substances to be tested were dissolved in dimethyl sulfoxide (DMSO) and the solution was diluted with DMSO/water, so that the final concentration (c) of the substance to be tested in the test solution had the value indicated in the table. The DMSO concentration in the test solution was 5% (v/v). The reaction was initiated by addition of the sGC. The reaction mixture was incubated at 37° C. for 15 to 20 minutes and then stopped by ice-cooling and addition of the stop reagent (50 mM EDTA, pH 8.0). An aliquot of 50 μl was taken and used for determining the cGMP content using the acetylation protocol of the Amersham cGMP-EIA kit. The absorption of the samples was measured at 450 nm (reference wavelength 620 nm) in a microtiter plate reader. The cGMP concentration was determined using a standard curve which was obtained under the same test conditions. The activation of sGC by a test substance is given as the n-fold stimulation of the basal enzyme activity which was found in the control experiments (using solvent instead of test substance) (calculated using the formula n-fold stimulation=[cGMP]test substance/[cGMP]control).

SMILES | n-fold stimulation (concentration c 50 μM) | further results
CN1CCN(S(=O)(=O)c2ccc(NC(=O)c3cc(Cl)ccc3NS(=O)(=O)c3ccc(Cl)c(Cl)c3)cc2)CC1 [Example 71, 5-Chloro-2-(3,4-dichloro-phenylsulfonylamino)-N-(4-(b4-methyl-piperazine-1-sulfonyl)-phenyl)-benzamide] | 13.4 | 
Cc1noc(C)c1S(=O)(=O)Nc1ccc(Cl)cc1C(=O)Nc1ccc(S(=O)(=O)N2C[C@@H](C)O[C@@H](C)C2)cc1 [Example 222, 5-Chloro-2-(3,5-dimethyl-isoxazole-4-sulfonylamino)-N-(4-(cis-2,6-dimethyl-morpholine-4-sulfonyl)-phenyl)-benzamide] |  | n-fold stimulation (concentration c 10 μM): 29.5
Cc1cc(NC(=O)c2cc(Cl)ccc2NS(=O)(=O)c2ccc(Cl)cc2)ccc1S(=O)(=O)N1C[C@@H](C)O[C@@H](C)C1 [Example 193, 5-Chloro-2-(4-chloro-phenylsulfonylamino)-N-(4-(cis-2,6-dimethyl-morpholine-4-sulfonyl)-3-methyl-phenyl)-benzamide] |  | n-fold stimulation (concentration c 10 μM): 31.1
COc1cc(NS(=O)(=O)c2ccc(Cl)s2)c(C(=O)Nc2ccc(S(=O)(=O)N(C)Cc3cccnc3)cc2)cc1OC.Cl [Example 191, 4,5-Dimethoxy-2-(5-chloro-thiophene-2-sulfonylamino)-N-(4-(N-methyl-N-(pyridin-3-yl-methyl)=aminosulfonyl)-phenyl)-benzamide hydrochloride] |  | n-fold stimulation (concentration c 10 μM): 27.5
O=C(Nc1ccc(S(=O)(=O)N2CCOCC2)cc1)c1cc(Cl)ccc1NS(=O)(=O)c1cccc(C(F)(F)F)c1 [Example 157, 5-Chloro-N-(4-(morpholine-4-sulfonyl)-phenyl)-2-(3-trifluoromethyl-phenylsulfonylamino)-benzamide] | 4.6 | 
O=C(Nc1ccc(S(=O)(=O)N2CCOCC2)cc1)c1cc(Cl)ccc1NS(=O)(=O)c1cc(Br)c(Br)s1 [Example 145, 5-Chloro-2-(4,5-dibromo-thiophene-2-sulfonylamino)-N-(4-(morpholine-4-sulfonyl)-phenyl)-benzamide] | 8 | 
O=C(Nc1ccc(S(=O)(=O)N2CCSCC2)cc1)c1sccc1NS(=O)(=O)c1ccc(Cl)cc1 [Example 84, 3-(4-Chloro-phenylsulfonylamino)-N-(4-(thiomorpholine-4-sulfonyl)-phenyl)-thiophene-2-carboxamide] | 23.7 | 
COc1cc(NS(=O)(=O)c2ccc(Cl)cc2)c(C(=O)Nc2ccc(S(=O)(=O)N3CCOCC3)cc2)cc1OC [Example 72, 2-(4-Chloro-phenylsulfonylamino)-4,5-dimethoxy-N-(4-(morpholine-4-sulfonyl)-phenyl)-benzamide] | 27 | 
COc1cc(NS(=O)(=O)c2ccc(Cl)cc2)c(C(=O)Nc2ccc(S(=O)(=O)N3CC[S+]([O-])CC3)cc2)cc1OC [Example 176, 2-(4-Chloro-phenylsulfonylamino)-4,5-dimethoxy-N-(4-(1-oxo-thiomorpholine-4-sulfonyl)-phenyl)-benzamide] | 13.9 | 
Cc1ccc(NS(=O)(=O)c2ccc(Cl)cc2)c(C(=O)Nc2ccc(S(=O)(=O)N3CCSCC3)cc2)c1 [Example 86, 2-(4-Chloro-phenylsulionylamino)-5-methyl-N-(4-(thiomorpholine-4-sulfonyl)-phenyl)-benzamide] | 32.9 | 
Cc1noc(C)c1S(=O)(=O)Nc1ccc(Cl)cc1C(=O)Nc1ccc(S(=O)(=O)N2CCc3ccccc3C2)cc1 [Example 208, 5-Chloro-2-(3,5-dimethyl-isoxazole-4-sulfonylamino)-N-(4-(1,2,3,4-tetrahydro-isoquinoline-2-sulfonyl)-phenyl)-benzamide] |  | n-fold stimulation (concentration c 10 μM): 23.1
COc1ccc(S(=O)(=O)Nc2ccc(Cl)cc2C(=O)Nc2ccc(S(=O)(=O)N3CCOCC3)cc2)cc1Cl [Example 148, 5-Chloro-2-(3-chloro-4-methoxy-phenylsulfonylamino)-N-(4-(morpholine-4-sulfonyl)-phenyl)-benzamide] | 15.5 | 
O=C(Nc1ccc(S(=O)(=O)c2ccccc2)cc1)c1cc(Cl)ccc1NS(=O)(=O)c1ccc(Cl)s1 [Example 225] |  | n-fold stimulation (concentration c 10 μM): 13.4
Cc1cc(NC(=O)c2cc(Cl)ccc2NS(=O)(=O)c2ccc(Cl)cc2)ccc1S(=O)(=O)N1CC(C)CC(C)C1 (stereo not drawn) [Example 194, 5-Chloro-2-(4-chloro-phenylsulfonylamino)-N-(4-(3,5-dimethyl-piperidine-1-sulfonyl)-3-methyl-phenyl)-benzamide] |  | n-fold stimulation (concentration c 5 μM): 20.0
COc1cc(NS(=O)(=O)c2ccc(Cl)cc2)c(C(=O)Nc2ccc(S(=O)(=O)N3CCS(=O)(=O)CC3)cc2)cc1OC [Example 175, 2-(4-Chloro-phenylsulfonylamino)-4,5-dimethoxy-N-(4-(1,1-dioxo-thiomorpholine-4-sulfonyl)-phenyl)-benzamide] | 21.1 | 
Cc1noc(C)c1S(=O)(=O)Nc1ccc(Cl)cc1C(=O)Nc1ccc(S(=O)(=O)N2CCOCC2)cc1 [Example 224, 5-Chloro-2-(3,5-dimethyl-isoxazole-4-sulfonylamino)-N-(4-(morpholine-4-sulfonyl)-phenyl)-benzamide] | 27.8 | 
COc1cc(NS(=O)(=O)c2c(C)noc2C)c(C(=O)Nc2ccc(S(=O)(=O)N(C)Cc3cccnc3)cc2)cc1OC [Example 196, 4,5-Dimethoxy-2-(3,5-dimethyl-isoxazole-4-sulfonylamino)-N-(4-(N-methyl-N-(pyridin-3-yl-methyl)-aminosulfonyl)-phenyl)-benzamide] |  | n-fold stimulation (concentration c 10 μM): 21.9
O=C(Nc1ccc(S(=O)(=O)N2CCC(O)CC2)cc1)c1cc(Cl)ccc1NS(=O)(=O)c1ccc(Cl)cc1 [Example 67, 5-Chloro-2-(4-chloro-phenylsulfonylamino)-N-(4-(4-hydroxy-piperidine-1-sulfonyl)-phenyl)-benzamide] | 29.6 | 
Cc1nn(C)c(Cl)c1S(=O)(=O)Nc1ccc(Cl)cc1C(=O)Nc1ccc(S(=O)(=O)N2CCSCC2)cc1 [Example 124, 5-Chloro-2-(5-chloro-1,3-dimethyl-1H-pyrazole-4-sulfonyl-amino)-N-(4-(thiomorpholine-4-sulfonyl)-phenyl)-benzamide] | 31.2 | 
O=C(Nc1ccc(S(=O)(=O)N2CCN(CCO)CC2)cc1)c1cc(Cl)ccc1NS(=O)(=O)c1ccc(Cl)cc1 [Example 73, 5-Chloro-2-(4-chloro-phenylsulfonylamino)-N-(4-(4-(2-hydroxy-ethyl)-piperazine-1-sulfonyl)-phenyl)-benzamide] | 16.5 | 
COc1cc(NS(=O)(=O)c2ccc(Cl)s2)c(C(=O)Nc2ccc(S(=O)(=O)N3CCSCC3)cc2)cc1OC [Example 206, 4,5-Dimethoxy-2-(5-chloro-thiophene-2-sulfonylamino)-N-(4-(thiomorpholine-4-sulfonyl)-phenyl)-benzamide] | 19.3 | 
